Assay results: article doi:10.1101/2024.07.24.604796 (bioRxiv, 2024)

Target: full-length FhlA (Escherichia coli, UniProt P19323)
Assay type: binding
Settings: 32 uM protein; 10 mM Tris pH 8, 100 mM NaCl, 5 mM MgCl2, on ice; labelled compound

Sequence of full-length FhlA (P19323 whole entry): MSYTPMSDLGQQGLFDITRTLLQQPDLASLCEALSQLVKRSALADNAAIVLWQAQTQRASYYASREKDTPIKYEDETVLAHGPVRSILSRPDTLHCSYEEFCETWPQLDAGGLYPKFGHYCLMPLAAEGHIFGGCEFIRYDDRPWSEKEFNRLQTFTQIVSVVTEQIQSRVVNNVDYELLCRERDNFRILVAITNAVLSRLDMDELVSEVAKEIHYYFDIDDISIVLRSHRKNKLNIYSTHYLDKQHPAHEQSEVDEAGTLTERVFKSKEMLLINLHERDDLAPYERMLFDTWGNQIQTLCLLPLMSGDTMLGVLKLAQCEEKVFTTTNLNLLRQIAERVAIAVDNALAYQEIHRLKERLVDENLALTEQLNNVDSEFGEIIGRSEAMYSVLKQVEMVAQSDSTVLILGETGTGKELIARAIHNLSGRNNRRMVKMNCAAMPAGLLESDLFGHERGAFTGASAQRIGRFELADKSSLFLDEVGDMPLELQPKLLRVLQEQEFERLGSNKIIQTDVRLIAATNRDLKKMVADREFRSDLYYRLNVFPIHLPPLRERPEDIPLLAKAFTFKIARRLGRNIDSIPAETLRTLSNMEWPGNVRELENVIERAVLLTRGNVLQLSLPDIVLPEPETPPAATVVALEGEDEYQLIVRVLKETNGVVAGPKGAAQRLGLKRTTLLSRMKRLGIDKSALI

O=CO [formate]
14C-formate DRaCALA: DRaCALA with full-length purified FhlA, and full-length E183K and E363K derivatives produced similar pattern
